Measured values from patent publication EP0694545B1, “Substituted dibenzoxazepine compounds, pharmaceutical compositions and methods of use” (G.D. SEARLE & CO., priority 1991, dated 1992).

Assays:
[1] = test system: Charles River male albino mice; assay: PBQ Writhing Assay (analgesic activity); assay type: in vivo; settings: for ED50: Mus musculus, po, read-out: PBQ WRITHING ASSAY (ED50 (mpk)) I.G.; for PBQ WRITHING ASSAY I.G. (Active / *): intragastric; for PBQ WRITHING ASSAY I.G. (Active / *) / PBQ WRITHING ASSAY S.C. (Active / *): initial screening dose 30 mg per kilogram, 30 min before PBQ i.p., writhes counted for ten minutes; for PBQ WRITHING ASSAY S.C. (Active / *): subcutaneous
Description: The Writhing Assay is one of the most widely-used experimental procedures for measuring the analgesic activity of different narcotic and nonnarcotic analgesic agents, and involves the continuous, chemically-induced pain of visceral origin to an animal, such as a mouse or rat. [Gyires et al., Arch. int. Pharmacodyn, 267, 131-140 (1984); […] al., Fed. Proc., 15, 494 (1956); Koster et al., Fed. Proc., 18, 412 (1959); and Witken et al., J. Pharmacol. exp. Ther., 133, 400-408 (1961).] Chemicals which may be used to induce this pain include phenylbenzoquinone (PBQ) and acetic acid. As a result of the chemical irritation to the animal, a characteristic stretching and writhing of the animal (dorsiflexion of the animal's back, extension of its hindlimbs and the strong contraction of its abdominal musculature) will generally occur. […] Drugs which reduce the number of writhes of the animal appear to restore the normal nociceptive threshold of the animal. Charles River male albino mice, weighing 20 to 30 grams were used in this assay. Thirty minutes after subcutaneous or intragastric administration to ten mice of 30 mg per kilogram of body weight of a compound of the present invention ("test compound"), […] per 10 g of body weight of a 0.025% w/v solution of PBQ was injected intraperitoneally into each mouse. Ten mice which were given saline in place of a test compound of the invention were used as a control group. Five minutes later, each mouse was individually placed into a glass beaker for observation, and the number of writhes occurring during the following ten-minute period was counted. A test compound was considered to have produced analgesia in a mouse if, in accordance with the conditions set forth above, and under the test criteria employed for this assay, after the administration of 30 mg per kilogram of body weight of a compound of the present invention to the mouse, the number of writhes elicited by a mouse injected with PBQ was equal to, or less than, one-half the median number of writhes recorded for the saline-treated control group of mice that day, as described by Taber in "Predictive Value of Analgesic Assays in Mice and Rats," Advances in Biochemical Psychopharmacology, 8, 191 (1974). The standard initial screening dose of a test compound employed in this assay was […] for both routes of administration. If this initial screening dose of the test compound produced analgesia in seven of ten mice, then the effect of additional doses of the test compound on the writhing response was evaluated, and then the ED50 dose was generally calculated. (The slopes of the dose-response curves for all test compounds analyzed were compared as described by Tallarida and Murray, Manual of Pharmacologic Calculations, Page 11 (Springer Verlag, New York, 1981)).

[2] = test system: prostaglandin E2-induced contractions of segments of guinea pig ileum; assay: Prostaglandin (PGE) Antagonism Assay in guinea pig ileum; assay type: cell-based; parameters: key to PGE ANTAGONISM IN GUINEA PIG ILEUM (Active): Active: A concentration of test compound was determined to be "active" if it produced a dose ratio significantly greater than that obtained in a series of blank treatments; settings: for Kb: Cavia porcellus, read-out: PGE ANTAGONISM IN GUINEA PIG ILEUM (pA2) (converted); for PGE ANTAGONISM IN GUINEA PIG ILEUM (Active): initial concentration of test compound, dose ratio of EC50 dose values versus blank treatments
Procedure: In order to determine the effectiveness of several of the compounds of the present invention ("test compounds") as prostaglandin E2 antagonists, a prostaglandin antagonism assay was conducted, as described below, to determine the ability of these compounds to inhibit prostaglandin E2-induced contractions of segments of guinea pig ileum.
Male albino guinea pigs weighing 200 to 500 grams were sacrificed by cervical dislocation.
The ileums were then quickly removed from the guinea pigs and placed in a modified Tyrode solution, a solution which is known to those of skill in the art, containing one-half of the usual amount of magnesium ions.
Segments of ileum about 2 cm long were then cut and mounted in a 10-mL tissue bath containing the modified Tyrode solution. The solution was maintained at 37°C and aerated with a gaseous mixture of 95% oxygen and 5% carbon dioxide.
Submaximal contractions of the ileum segments were then generated by injecting prostaglandin E2 into the bath, and detected isotonically. Data for a control prostaglandin E2 dose response curve plotting concentration of prostaglandin E2 versus number of contractions generated was then obtained by experimentally adjusting the dose of the prostaglandin E2 being injected into the tissue bath, in a manner known by those of skill in the art.
Solutions or suspensions containing an initial amount of a test compound in modified Tyrode solution ("test solutions/ suspensions") were then separately substituted for the tissue bath. Each test solution/suspension was then kept in constant contact with the ileum tissue, except for brief periods to drain the bath in preparation for rinsing with fresh test solution/suspension. Different doses of prostaglandin E2 were again injected into the test solutions/suspensions.
A second prostaglandin E2 dose response curve was then generated for prostaglandin E2 in the presence of a test compound.
A dose ratio of EC50 dose values was then calculated from the results of each test in a manner known by those of skill in the art. […] Duplicate tests were conducted on each concentration of test compound.
If the initial concentration of a test compound was determined to be "active," then varying concentrations of the test compound were then assayed. As is shown in Table I below, all test compounds analyzed in this assay were determined to be "active" as prostaglandin E2 antagonists at the initial concentration.
The pA2 value (a statistical constant which is a common measure of expressing the potency of a particular drug as a competitive antagonist) was then calculated for each test compound by schild plot calculations, as described by H. O. Schild, "pA, A New Scale for the Measurement of Drug Antagonism," Br. J. Pharmacol, 2, 189 (1947), according to the following mathematical formula: pA2 = -log[Test Compound] to quantitate the effectiveness of the test compounds as prostaglandin E2 antagonists.

Row | Molecule | ED50 ([1]; intragastric administration) [mg/kg] | PBQ WRITHING ASSAY I.G. (Active / *) [1] | PBQ WRITHING ASSAY S.C. (Active / *) [1] | Kb ([2]; Schild plot calculation) [nM] | PGE ANTAGONISM IN GUINEA PIG ILEUM (Active) [2] | PBQ WRITHING ASSAY (ED50 (mpk)) I.G. ([1]; intragastric administration) [mpk] | PBQ WRITHING ASSAY (ED50 (mpk)) S.C. ([1]; subcutaneous administration) [mpk] | PGE ANTAGONISM IN GUINEA PIG ILEUM (pA2) ([2]; Schild plot calculation)
1 | O=C(CCCc1cccs1)NNC(=O)N1Cc2ccccc2Oc2ccc(Cl)cc21 [Example 9, 8-chlorodibenz[b,f][1,4]oxazepine-10(11H)-carboxylic acid, 2-[1-oxo-4-(2-thienyl)butyl]hydrazide] | 6.8 | Active | Active | 25.1 | Active |  |  | 
2 | 8-chlorodibenz[b,f][1,4]oxazepine-10(11H)-carboxylic acid, 2-[1-oxo-3-(4-pyridinyl)propyl]hydrazide, monohydrochloride [Example 26] |  | Active | Active |  | Active | 6.8 | 6.3 | 6.5
3 | O=C(CCc1ccccn1)NNC(=O)N1Cc2ccccc2Oc2ccc(Cl)cc21 [Example 6, 8-chlorodibenz[b,f][1,4]oxazepine-10(11H)-carboxylic acid, 2-[1-oxo-3-(2-pyridinyl)propyl]hydrazide] | 8.6 | Active | Active | 2510 | Active |  |  | 
